Laboratory results from PubChem BioAssay AID1963982 (Molecular Pharmacology Branch, DTP, NCI, 2024).
Several values for one entry are separate records, joined by “and”; a condition that tells them apart may be missing. Equal entries are not always repeated.

Test system: 313798-341-R-J2-PDC spheroids, viability
Assay: Anticancer human tumor 313798-341-R-J2-PDC patient-derived cervical squamous cell carcinoma cell line growth inhibition [PI3K]
Details: spheroids with HUVEC and MSC; for viability, T/C: stronger effect = lower value
Summary of the method: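 High-throughput combination screen: PI3K inhibitors crossed with targeted small molecules on complex spheroids of tumor cells, HUVEC and MSCs at 37 degrees C, 5% CO2. Top concentration was at or near clinical Cmax (otherwise 10 microM), with half-log decrements.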

[1] = curve of first compound, second compound 0.0316 µM
[2] = curve of first compound, second compound 0.1 µM
[3] = curve of first compound, second compound 0.316 µM
[4] = curve of first compound, second compound 1 µM
[5] = curve of first compound, second compound 3.16 µM
[6] = curve of first compound, second compound 10 µM
[7] = second compound 0.0316 µM, first compound 0.0316 µM
[8] = second compound 0.0316 µM, first compound 0.1 µM
[9] = second compound 0.0316 µM, first compound 0.316 µM
[10] = second compound 0.0316 µM, first compound 1 µM
[11] = second compound 0.1 µM, first compound 0.0316 µM
[12] = second compound 0.1 µM, first compound 0.1 µM
[13] = second compound 0.1 µM, first compound 0.316 µM
[14] = second compound 0.1 µM, first compound 1 µM
[15] = second compound 0.316 µM, first compound 0.0316 µM
[16] = second compound 0.316 µM, first compound 0.1 µM
[17] = second compound 0.316 µM, first compound 0.316 µM
[18] = second compound 0.316 µM, first compound 1 µM
[19] = second compound 1 µM, first compound 0.0316 µM
[20] = second compound 1 µM, first compound 0.1 µM
[21] = second compound 1 µM, first compound 0.316 µM
[22] = second compound 1 µM, first compound 1 µM
[23] = second compound 3.16 µM, first compound 0.0316 µM
[24] = second compound 3.16 µM, first compound 0.1 µM
[25] = second compound 3.16 µM, first compound 0.316 µM
[26] = second compound 3.16 µM, first compound 1 µM
[27] = second compound 10 µM, first compound 0.0316 µM
[28] = second compound 10 µM, first compound 0.1 µM
[29] = second compound 10 µM, first compound 0.316 µM
[30] = second compound 10 µM, first compound 1 µM
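Also: spheroids exposed to compounds for seven days.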
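For viability, T/C in this document: 100% = DMSO vehicle control viability.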

## Cn1nccc1Nc1nccc(-c2ccn(C(CO)c3ccc(Cl)c(F)c3)c(=O)c2)n1 (stereo not drawn)
Compound 0.0316 µM
  viability, T/C: 98.7% and 101% (2×) and 96.5%
Compound 0.1 µM
  viability, T/C: 95.3% [middle of 4 runs]
Compound 0.316 µM
  viability, T/C: 98.6% [middle of 4 runs]
Compound 1 µM
  viability, T/C: 100% [middle of 4 runs]
Compound 3.16 µM
  viability, T/C: 116% [middle of 4 runs]
Compound 10 µM
  viability, T/C: 96.9% and 104% (2×) and 105%
Curve of compound
  IC50: > 10 µM

## C[C@@H](NC(=O)c1ncnc(N)c1Cl)c1ncc(C(=O)Nc2cc(C(F)(F)F)c(Cl)cn2)s1 + CC(Nc1ncnc2nc[nH]c12)c1cc2cccc(Cl)c2c(=O)n1-c1ccccc1
[1]
  IC50: > 10 µM
[2]
  IC50: > 10 µM
[3]
  IC50: > 10 µM
[4]
  IC50: > 10 µM
[5]
  IC50: > 10 µM
[6]
  IC50: > 10 µM
[7]
  viability, T/C: 90.2%
[8]
  viability, T/C: 104%
[9]
  viability, T/C: 106%
[10]
  viability, T/C: 112%
Second compound 0.0316 µM, first compound 3.16 µM
  viability, T/C: 100%
Second compound 0.0316 µM, first compound 10 µM
  viability, T/C: 101%
[11]
  viability, T/C: 98.3%
[12]
  viability, T/C: 100%
[13]
  viability, T/C: 98.3%
[14]
  viability, T/C: 98.7%
Second compound 0.1 µM, first compound 3.16 µM
  viability, T/C: 110%
Second compound 0.1 µM, first compound 10 µM
  viability, T/C: 117%
[15]
  viability, T/C: 99.3%
[16]
  viability, T/C: 102%
[17]
  viability, T/C: 101%
[18]
  viability, T/C: 97.7%
Second compound 0.316 µM, first compound 3.16 µM
  viability, T/C: 103%
Second compound 0.316 µM, first compound 10 µM
  viability, T/C: 105%
[19]
  viability, T/C: 98.5%
[20]
  viability, T/C: 106%
[21]
  viability, T/C: 90.9%
[22]
  viability, T/C: 101%
Second compound 1 µM, first compound 3.16 µM
  viability, T/C: 104%
Second compound 1 µM, first compound 10 µM
  viability, T/C: 95.7%
[23]
  viability, T/C: 98%
[24]
  viability, T/C: 100%
[25]
  viability, T/C: 98.6%
[26]
  viability, T/C: 98.9%
Second compound 3.16 µM, first compound 3.16 µM
  viability, T/C: 106%
Second compound 3.16 µM, first compound 10 µM
  viability, T/C: 96.1%
[27]
  viability, T/C: 94%
[28]
  viability, T/C: 85.2%
[29]
  viability, T/C: 82.8%
[30]
  viability, T/C: 86.7%
Second compound 10 µM, first compound 3.16 µM
  viability, T/C: 89.9%
Second compound 10 µM, first compound 10 µM
  viability, T/C: 88.6%

## CCN1CCN(Cc2ccc(Nc3ncc(F)c(-c4cc(F)c5nc(C)n(C(C)C)c5c4)n3)nc2)CC1 + Cc1nc(NC(=O)N2CCCC2C(N)=O)sc1-c1ccnc(C(C)(C)C(F)(F)F)c1
[1]
  IC50: > 1 µM
[2]
  IC50: > 1 µM
[3]
  IC50: > 1 µM
[4]
  IC50: > 1 µM
[5]
  IC50: > 1 µM
[6]
  IC50: < 0.00316 µM
Second compound 0.0316 µM, first compound 0.00316 µM
  viability, T/C: 106%
Second compound 0.0316 µM, first compound 0.01 µM
  viability, T/C: 104%
[7]
  viability, T/C: 109%
[8]
  viability, T/C: 108%
[9]
  viability, T/C: 131%
[10]
  viability, T/C: 129%
Second compound 0.1 µM, first compound 0.00316 µM
  viability, T/C: 100%
Second compound 0.1 µM, first compound 0.01 µM
  viability, T/C: 104%
[11]
  viability, T/C: 111%
[12]
  viability, T/C: 104%
[13]
  viability, T/C: 126%
[14]
  viability, T/C: 131%
Second compound 0.316 µM, first compound 0.00316 µM
  viability, T/C: 96.9%
Second compound 0.316 µM, first compound 0.01 µM
  viability, T/C: 102%
[15]
  viability, T/C: 112%
[16]
  viability, T/C: 112%
[17]
  viability, T/C: 114%
[18]
  viability, T/C: 114%
Second compound 1 µM, first compound 0.00316 µM
  viability, T/C: 93.2%
Second compound 1 µM, first compound 0.01 µM
  viability, T/C: 102%
[19]
  viability, T/C: 94.2%
[20]
  viability, T/C: 110%
[21]
  viability, T/C: 88.2%
[22]
  viability, T/C: 80.9%
Second compound 3.16 µM, first compound 0.00316 µM
  viability, T/C: 63.6%
Second compound 3.16 µM, first compound 0.01 µM
  viability, T/C: 62.6%
[23]
  viability, T/C: 56.2%
[24]
  viability, T/C: 59.9%
[25]
  viability, T/C: 58.4%
[26]
  viability, T/C: 69%
Second compound 10 µM, first compound 0.00316 µM
  viability, T/C: 37%
Second compound 10 µM, first compound 0.01 µM
  viability, T/C: 37.4%
[27]
  viability, T/C: 34.3%
[28]
  viability, T/C: 35.8%
[29]
  viability, T/C: 41.4%
[30]
  viability, T/C: 45.8%

## CCCS(=O)(=O)Nc1ccc(F)c(C(=O)c2c[nH]c3ncc(-c4ccc(Cl)cc4)cc23)c1F
Compound 0.0316 µM
  viability, T/C: 98.2% [middle of 4 runs]
Compound 0.1 µM
  viability, T/C: 102% [middle of 4 runs]
Compound 0.316 µM
  viability, T/C: 101% [middle of 4 runs]
Compound 1 µM
  viability, T/C: 100% [middle of 4 runs]
Compound 3.16 µM
  viability, T/C: 107% (2×) and 99.1% and 108%
Compound 10 µM
  viability, T/C: 18.7% [middle of 4 runs]
Curve of compound
  IC50: 6.37 µM [middle of 4 runs]
